ChEMBL document CHEMBL1764977, “Anti-tumor and anti-leishmanial evaluations of 1,3,4-oxadiazine, pyran derivatives derived from cross-coupling reactions of β-bromo-6H-1,3,4-oxadiazine derivatives” (2011)

What was measured:
Assay type in all cases: functional
Leishmania donovani = assay: Antileishmanial activity against Leishmania donovani axenic amastigotes infected in human THP1 cells assessed as growth inhibition at 50 uM; details: THP-1, read-out: GI
MCF7 = assay: Growth inhibition of human MCF7 cells after 48 hrs by sulforhodamine B assay; details: MCF7, 48 h
NCI-H460 = assay: Growth inhibition of human NCI-H460 cells after 48 hrs by sulforhodamine B assay; details: NCI-H460, 48 h
SF-268 = assay: Growth inhibition of human SF268 cells after 48 hrs by sulforhodamine B assay; details: SF-268, 48 h
THP-1 = assay: Growth inhibition of human THP1 cells after 48 hrs by sulforhodamine B assay; details: THP-1, 48 h

Row | SMILES | inhibition of growth at 50 µM (Leishmania donovani) [%] | GI50 (MCF7) [µM] | GI50 (NCI-H460) [µM] | GI50 (SF-268) [µM] | GI50 (THP-1) [µM]
1 | C[C@@H]1[C@H](O)[C@@H](C)/C=C/C=C/C=C/C=C/C=C/C=C/C=C/[C@H](O[C@@H]2O[C@H](C)[C@@H](O)[C@H](N)[C@@H]2O)C[C@@H]2O[C@](O)(C[C@@H](O)C[C@@H](O)[C@H](O)CC[C@@H](O)C[C@@H](O)CC(=O)O[C@H]1C)C[C@H](O)[C@H]2C(=O)O [AMPHOTERICIN B] | 95 |  |  |  | 
2 | N#CCC1=NN=C(c2ccc([N+](=O)[O-])cc2)C(CC(=O)c2ccc([N+](=O)[O-])cc2)O1 (stereo not given) | 88 | 1.6 | 2.6 | 2 | 33
3 | N#CCC1=C(C#N)CC(c2ccc(Br)cc2)=C(CC(=O)c2ccc(Br)cc2)O1 | 60 | 12 | 10.4 | 8.2 | 
4 | N#CCC1=NN=C(c2ccc(Br)cc2)CO1 | 26 | 1.5 | 0.9 | 10.3 | 
5 | N#CCC1=NN=C(c2ccc([N+](=O)[O-])cc2)C(CC(=O)c2ccc(Br)cc2)O1 (stereo not given) | 73 | 36 | 40 | 16.5 | 
6 | N#CCC(=O)N/N=C(/CBr)c1ccc(Br)cc1 | 20 | 40.6 | 10 | 12.8 | 
7 | N#CCC1=NN=C(c2ccc([N+](=O)[O-])cc2)C(Br)O1 (stereo not given) | 58 | 10.6 | 8.5 | 6.7 | 22
8 | N#CCC1=C(C#N)CC(c2ccc(Br)cc2)=C(CC(=O)c2ccc([N+](=O)[O-])cc2)O1 | 90 | 0.09 | 0.01 | 0.003 | 12.9
9 | N#CCC1=NN=C(c2ccc([N+](=O)[O-])cc2)CO1 | 44 | 0.001 | 0.002 | 1.8 | 
10 | N#CCC1=C(C#N)CC(c2ccc([N+](=O)[O-])cc2)=C(CC(=O)c2ccc(Br)cc2)O1 | 82 | 4.9 | 3.6 | 2.8 | 26
11 | N#CCC1=C(C#N)CC(c2ccc([N+](=O)[O-])cc2)=C(CC(=O)c2ccc([N+](=O)[O-])cc2)O1 | 98 | 0.03 | 0.08 | 0.005 | 10.2
12 | COc1cccc2c1C(=O)c1c(O)c3c(c(O)c1C2=O)C[C@@](O)(C(=O)CO)C[C@@H]3O[C@H]1C[C@H](N)[C@H](O)[C@H](C)O1 [DOXORUBICIN] |  |  | 0.094 | 0.094 | 
13 | N#CCC(=O)N/N=C(/CBr)c1ccc([N+](=O)[O-])cc1 | 35 | 18.4 | 10.3 | 14 | 
14 | N#CCC1=NN=C(c2ccc(Br)cc2)C(CC(=O)c2ccc(Br)cc2)O1 (stereo not given) | 48 | 30.4 | 22.1 | 16.9 | 
15 | N#CCC1=NN=C(c2ccc(Br)cc2)C(CC(=O)c2ccc([N+](=O)[O-])cc2)O1 (stereo not given) | 60 | 32 | 23 | 18.5 | 20
16 | N#CCC1=NN=C(c2ccc(Br)cc2)C(Br)O1 (stereo not given) | 40 | 70.7 | 38.2 | 32 | 
